# Laboratory results published in US12643896B2, “Dicyclopropylmethyl derivatives as IL-17 modulators” (UCB Biopharma SRL, priority 2020, dated 2026).
# pIC50: −log10 of the molar value.
# Target: T1, IL-17A (Homo sapiens, UniProt Q16552)
# T1 sequence (Q16552 24-155): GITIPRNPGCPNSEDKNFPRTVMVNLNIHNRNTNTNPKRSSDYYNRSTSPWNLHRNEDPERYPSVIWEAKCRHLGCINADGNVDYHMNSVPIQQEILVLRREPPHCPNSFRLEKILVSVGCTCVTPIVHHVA
# Assay: Inhibition of IL-17A induced IL-6 release from dermal fibroblast cell line (HDF cell line assay)
# Type: cell-based
# Settings: human dermal fibroblasts (HDF) stimulated with IL-17A 50 pM + TNF-α 25 pM; IL-6 measured by HTRF; pIC50 = −log10[IC50], IC50 molar
# Description: Inhibition of IL-17A Induced IL-6 Release from Dermal Fibroblast Cell Line
# The purpose of this assay is to test the neutralising ability to IL-17 proteins, in a human primary cell system. Stimulation of normal human dermal fibroblasts (HDF) with IL-17 alone produces only a very weak signal but in combination with certain other cytokines, such as TNFα, a synergistic effect can be seen in the production of inflammatory cytokines, i.e. IL-6.
# HDFs were stimulated with IL-17A (50 pM) in combination with TNF-α (25 pM). The resultant IL-6 response was then measured using a homogenous time-resolved FRET kit from Cisbio. The kit utilises two monoclonal antibodies, one labelled with Eu-Cryptate (Donor) and the second with d2 or XL665 (Acceptor). The intensity of the signal is proportional to the concentration of IL-6 present in the sample (Ratio is calculated by 665/620×104).
# The ability of a compound to inhibit IL-17 induced IL-6 release from human dermal fibroblasts is measured in this assay.
# HDF cells (Sigma #106-05n) were cultured in complete media (DMEM+10% FCS+2 mM L-glutamine) and maintained in a tissue culture flask using standard techniques. Cells were harvested from the tissue culture flask on the morning of the assay using TrypLE (Invitrogen #12605036). The TrypLE was neutralised using complete medium (45 mL) and the cells were centrifuged at 300×g for 3 minutes. The cells were re-suspended in complete media (5 mL) counted and adjusted to a concentration of 3.125×10^4 cells/mL before being added to the 384 well assay plate (Corning #3701) at 40 μL per well. The cells were left for a minimum of three hours, at 37° C./5% CO2, to adhere to the plate.
# Compounds were serially diluted in DMSO before receiving an aqueous dilution into a 384 well dilution plate (Greiner #781281), where 5 μL from the titration plate was transferred to 45 μL of complete media and mixed to give a solution containing 10% DMSO.
# Mixtures of TNFα and IL-17 cytokine were prepared in complete media to final concentrations of TNFα 25 pM/IL-17A 50 pM, then 30 μL of the solution was added to a 384 well reagent plate (Greiner #781281).
# 10 μL from the aqueous dilution plate was transferred to the reagent plate containing 30 μL of the diluted cytokines, to give a 2.5% DMSO solution. The compounds were incubated with the cytokine mixtures for 5 h at 37° C. After the incubation, 10 μL was transferred to the assay plate, to give a 0.5% DMSO solution, then incubated for 18-20 h at 37° C./5% CO2.
# From the Cisbio IL-6 FRET kit (Cisbio #62IL6PEB) europium cryptate and Alexa 665 were diluted in reconstitution buffer and mixed 1:1, as per kit insert. To a white low volume 384 well plate (Greiner #784075) were added FRET reagents (10 μL), then supernatant (10 μL) was transferred from the assay plate to Greiner reagent plate. The mixture was incubated at room temperature for 3 h with gentle shaking (<400 rpm) before being read on a Synergy Neo 2 plate reader (Excitation: 330 nm; Emission: […]).
row,Compound,pIC50
1,"O=C(N[C@H](c1nc2nc([C@H]3C[C@](O)(C(F)F)CCN3C(=O)C34CC(F)(C3)C4)ccc2[nH]1)C(C1CC1)C1CC1)C1(F)CC1 (single isomer, unassigned) [Example 12]",6.10
2,"Cc1nonc1C(=O)N[C@H](c1nc2nc([C@@H]3CC(F)(F)CCN3C(=O)C34CC(F)(C3)C4)ccc2[nH]1)C(C1CC1)C1CC1 (single isomer, unassigned) [Example 6]",7.90
3,"Cc1nonc1C(=O)N[C@H](c1nc2nc([C@H]3C[C@](O)(C(F)(F)F)CCN3C(=O)C34CC(F)(C3)C4)ccc2[nH]1)C(C1CC1)C1CC1 (single isomer, unassigned) [Example 7]",5.60
4,"O=C(N1CCC(F)(F)CC1c1ccc2[nH]c(C(NC(=O)C3(C(F)(F)F)CC3)C(C3CC3)C3CC3)nc2n1)C12CC(F)(C1)C2 (centres unmarked) [Example 1, N-(2,2-Dicyclopropyl-1-{5-[4,4-difluoro-1-(3-fluorobicyclo[1.1.1]pentane-1-carbonyl)-piperidin-2-yl]-1H-imidazo[4,5-b]pyridin-2-yl}ethyl)-1-(trifluoromethyl)cyclopropane-carboxamide]",7.20
5,"Cc1nonc1C(=O)NC(c1nc2nc(C3CC(F)(F)CCN3C(=O)C34CC(F)(C3)C4)ccc2[nH]1)C(C1CC1)C1CC1 (centres unmarked) [Example 2, N-(2,2-Dicyclopropyl-1-{5-[4,4-difluoro-1-(3-fluorobicyclo[1.1.1]pentane-1-carbonyl)-piperidin-2-yl]-1H-imidazo[4,5-b]pyridin-2-yl}ethyl)-4-methyl-1,2,5-oxadiazole-3-carboxamide]",7.20

# Second part, the compound after the results:
row,pIC50,Compound
1,8.30,"O=C(N[C@H](c1nc2nc([C@@H]3C[C@@](O)(C(F)F)CCN3C(=O)C34CC(F)(C3)C4)ccc2[nH]1)C(C1CC1)C1CC1)C1(F)CC1 (single isomer, unassigned) [Example 11]"
2,5.50,"Cc1nonc1C(=O)N[C@@H](c1nc2nc([C@@H]3CC(F)(F)CCN3C(=O)C34CC(F)(C3)C4)ccc2[nH]1)C(C1CC1)C1CC1 (single isomer, unassigned) [Example 4]"
3,4.80,"Cc1nonc1C(=O)N[C@@H](c1nc2nc([C@H]3CC(F)(F)CCN3C(=O)C34CC(F)(C3)C4)ccc2[nH]1)C(C1CC1)C1CC1 (single isomer, unassigned) [Example 3]"
4,6.40,"Cc1nonc1C(=O)N[C@H](c1nc2nc([C@H]3CC(F)(F)CCN3C(=O)C34CC(F)(C3)C4)ccc2[nH]1)C(C1CC1)C1CC1 (single isomer, unassigned) [Example 5]"
5,8.10,"Cc1nonc1C(=O)N[C@H](c1nc2nc([C@@H]3C[C@@](O)(C(F)(F)F)CCN3C(=O)C34CC(F)(C3)C4)ccc2[nH]1)C(C1CC1)C1CC1 (single isomer, unassigned) [Example 8]"
6,< 5.00,"Cc1nonc1C(=O)N[C@@H](c1nc2nc([C@H]3C[C@](O)(C(F)(F)F)CCN3C(=O)C34CC(F)(C3)C4)ccc2[nH]1)C(C1CC1)C1CC1 (single isomer, unassigned) [Example 9]"
